Drawing on patent publication US9938262B2, “Benzamides” (Merck Patent GmbH, priority 2011, dated 2018), this text covers EC50 for six compounds.

One assay has as its target T1, FSHR (Homo sapiens, UniProt P23945).
T1 construct: expressed in transfected cells; host or cells: CHO (Cho-FSHR-LUC-1-1-43)
Kind of assay: EC50 of cyclic AMP production in CHO FSHR cells + EC20 FSH (Assay A). To be noted: CHO FSHR cells + EC20 FSH; Table 2; read-out: Assay A EC50 of cyclic AMP production. It is filed as cell-based. Summed up: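 cAMP HTRF ratio (665/620 nm) read after 1 h, 37 °C exposure of CHO-FSHR cells to compound in presence of EC20 FSH ([…]) and IBMX 200 μM. Responses given relative to FSH standard maximum; EC50 derived.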

For assay [1], the target named is T2, follicle-stimulating hormone (FSH) receptor (Rattus norvegicus, UniProt P20395).
T2 construct: endogenous in cells; host or cells: rat granulosa cells
T2 sequence (P20395 18-692): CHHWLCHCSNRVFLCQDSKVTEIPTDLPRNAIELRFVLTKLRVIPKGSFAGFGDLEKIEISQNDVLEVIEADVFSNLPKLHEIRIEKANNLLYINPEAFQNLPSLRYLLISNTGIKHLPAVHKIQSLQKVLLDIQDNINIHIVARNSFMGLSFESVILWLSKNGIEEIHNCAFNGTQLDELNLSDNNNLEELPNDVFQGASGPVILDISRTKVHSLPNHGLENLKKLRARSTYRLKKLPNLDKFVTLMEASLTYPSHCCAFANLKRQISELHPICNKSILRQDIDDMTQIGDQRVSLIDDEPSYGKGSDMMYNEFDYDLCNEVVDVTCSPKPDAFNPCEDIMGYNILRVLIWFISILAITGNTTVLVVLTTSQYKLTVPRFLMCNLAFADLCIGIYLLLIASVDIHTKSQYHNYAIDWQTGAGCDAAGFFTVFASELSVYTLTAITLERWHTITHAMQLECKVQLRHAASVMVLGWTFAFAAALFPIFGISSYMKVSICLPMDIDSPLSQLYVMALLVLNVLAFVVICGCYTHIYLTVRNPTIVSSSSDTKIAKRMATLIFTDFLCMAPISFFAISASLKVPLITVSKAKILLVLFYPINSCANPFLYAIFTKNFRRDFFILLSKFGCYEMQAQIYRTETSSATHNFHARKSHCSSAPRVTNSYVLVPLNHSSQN
Kind of assay: Rat granulosa EC50 FSH (Assay B). In kind it is cell-based. To be noted: rat granulosa cells; Table 2. How it is done:
Example 11: Rat Granulosa EC50 FSH (Assay B)
The assay was performed pursuant to the teaching of Yanofsky et al. (2006) Allosteric activation of the follicle-stimulating hormone (FSH) receptor by selective, nonpeptide agonists. JBC 281(19): 13226-13233, which is incorporated by reference in the disclosure of the invention.

T1 sequence (P23945 18-695): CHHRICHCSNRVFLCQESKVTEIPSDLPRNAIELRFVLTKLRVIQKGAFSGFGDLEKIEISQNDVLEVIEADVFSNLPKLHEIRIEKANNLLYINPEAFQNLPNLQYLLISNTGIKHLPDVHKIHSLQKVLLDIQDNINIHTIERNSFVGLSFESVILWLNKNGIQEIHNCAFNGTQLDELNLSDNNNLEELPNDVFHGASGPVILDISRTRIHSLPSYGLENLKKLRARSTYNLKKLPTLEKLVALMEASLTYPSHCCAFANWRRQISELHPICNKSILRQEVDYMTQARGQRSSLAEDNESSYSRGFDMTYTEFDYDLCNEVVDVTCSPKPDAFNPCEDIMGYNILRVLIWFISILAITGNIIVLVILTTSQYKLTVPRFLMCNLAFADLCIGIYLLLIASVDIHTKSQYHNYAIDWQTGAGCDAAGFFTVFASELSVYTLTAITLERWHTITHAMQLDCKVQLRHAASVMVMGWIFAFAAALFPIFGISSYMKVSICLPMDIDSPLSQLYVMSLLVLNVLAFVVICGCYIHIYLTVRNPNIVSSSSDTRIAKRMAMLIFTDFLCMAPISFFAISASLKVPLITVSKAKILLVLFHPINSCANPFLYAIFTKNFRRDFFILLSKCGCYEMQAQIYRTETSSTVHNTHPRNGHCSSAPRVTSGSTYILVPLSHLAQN
T1 sequence (P01215 25-116 partner): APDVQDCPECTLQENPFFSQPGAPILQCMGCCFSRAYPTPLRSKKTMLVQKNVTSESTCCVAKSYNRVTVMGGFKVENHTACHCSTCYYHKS
T1 sequence (P01225 19-129 partner): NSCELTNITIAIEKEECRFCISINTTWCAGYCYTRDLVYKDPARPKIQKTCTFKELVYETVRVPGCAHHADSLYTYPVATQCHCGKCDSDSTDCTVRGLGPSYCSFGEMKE

As a reminder, the EC50 is the concentration needed to bring the measured effect to its halfway point. In the case of `Cc1ccccc1N1CCN(c2ccc(C(=O)NCCCN3CCCC3=O)cc2NC(=O)c2ccn(C)n2)CC1` [Compound 435], the EC50 (at FSHR; in assay [1]) was 100 to 1000 nM each time.
As for `O=C(NCCCN1CCCC1=O)c1ccc(N2CCN(c3ncccc3Cl)CC2)c(NC(=O)c2coc(C3CC3)n2)c1` [Compound 510], the EC50 on FSHR is less than 100 nM; in assay [1] it was 1000 to 10000 nM.
Take `Cc1ccc(C(=O)Nc2cc(C(=O)NCCCN3CCCC3=O)ccc2N2CCN(c3ccccc3C3CC3)CC2)o1` [Compound 523]: the EC50 (at FSHR; in assay [1]) was 100 to 1000 nM in each case.
Take `Cc1ccccc1N1CCN(c2ccc(C(=O)NCCCN3CCCC3=O)cc2NCc2ccccn2)CC1` [Compound 526]: the EC50 at FSHR was 100 to 1000 nM; in assay [1], more than 10000 nM.
Consider `Cc1ccnc(N2CCN(c3ccc(C(=O)NCCCN4CCCC4=O)cc3NC(=O)c3coc(C4CC4)n3)CC2)c1` [Compound 529], for which the EC50 on FSHR fell in the range of 100 to 1000 nM; in assay [1] it was 1000 to 10000 nM.
The like results for `COc1ccnc(N2CCN(c3ccc(C(=O)NCCCN4CCCC4=O)cc3NC(=O)c3coc(C4CC4)n3)CC2)n1` [Compound 601] were, in that order, 100 to 1000 nM and 1000 to 10000 nM.
